Test results taken from US20230078764A1 (Yumanity Therapeutics, Inc., priority 2019, published 2023).

Assays:
human SCD5 = biological target: T1, human SCD5 (Homo sapiens, UniProt Q86SK9); experiment: Growth inhibition of yeast strain expressing human SCD5 as sole desaturase (OLE1 deleted), OD600 readout; assay type: cell-based; conditions: yeast strain expressing human SCD5 as sole desaturase; growth (OD600) after 40 h at 30° C.; read-out: SCD5 IC50
T1 construct: expressed in transfected cells; host or cells: yeast strain with OLE1 deleted, plasmid-borne human SCD5 (selected in SD-Ura)
T1 sequence (Q86SK9 1-330): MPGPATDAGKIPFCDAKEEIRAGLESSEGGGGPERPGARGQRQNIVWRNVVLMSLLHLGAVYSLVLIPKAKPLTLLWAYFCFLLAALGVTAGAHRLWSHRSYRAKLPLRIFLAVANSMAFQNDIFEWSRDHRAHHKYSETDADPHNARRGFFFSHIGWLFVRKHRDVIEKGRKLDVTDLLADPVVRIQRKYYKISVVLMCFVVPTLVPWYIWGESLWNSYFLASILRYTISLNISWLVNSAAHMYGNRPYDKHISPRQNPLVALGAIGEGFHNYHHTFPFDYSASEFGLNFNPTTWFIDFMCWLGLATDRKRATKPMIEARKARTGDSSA

human SCD1 = biological target: T2, human SCD1 (Homo sapiens, UniProt O00767); experiment: Growth inhibition of yeast strain expressing human SCD1 as sole desaturase (OLE1 deleted), OD600 readout; assay type: cell-based; conditions: yeast strain expressing human SCD1 as sole desaturase; growth (OD600) after 40 h at 30° C.; read-out: SCD1 IC50
T2 construct: expressed in transfected cells; host or cells: yeast strain with OLE1 deleted, plasmid-borne human SCD1 (selected in SD-Ura)
T2 sequence (O00767 1-359): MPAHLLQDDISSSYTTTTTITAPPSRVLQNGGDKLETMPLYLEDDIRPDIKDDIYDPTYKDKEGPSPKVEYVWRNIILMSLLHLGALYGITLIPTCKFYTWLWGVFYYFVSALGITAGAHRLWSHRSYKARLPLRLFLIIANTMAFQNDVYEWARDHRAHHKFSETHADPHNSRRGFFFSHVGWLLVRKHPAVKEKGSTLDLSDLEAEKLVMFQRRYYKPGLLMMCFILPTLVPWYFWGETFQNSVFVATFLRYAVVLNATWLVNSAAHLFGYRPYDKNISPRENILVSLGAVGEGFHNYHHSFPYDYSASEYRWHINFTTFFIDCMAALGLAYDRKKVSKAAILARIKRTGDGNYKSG

Cn1nc(C(=O)Nc2nc(Cl)c(Cc3cccc(F)c3)s2)ccc1=O [Compound 232, N-(4-chloro-5-(3-fluorobenzyl)thiazol-2-yl)-1-methyl-6-oxo-1,6-dihydropyridazine-3-carboxamide]
IC50 (human SCD5): 70 nM
IC50 (human SCD1): 140 nM

Cn1nc(C(=O)Nc2nc(C#N)c(Cc3cccc(F)c3)s2)ccc1=O [Compound 233, N-(4-cyano-5-(3-fluorobenzyl)thiazol-2-yl)-1-methyl-6-oxo-1,6-dihydropyridazine-3-carboxamide]
IC50 (human SCD5): 870 nM
IC50 (human SCD1): 1630 nM

CN1N=C(C(=O)Nc2ncc(Cc3ccc(F)cc3F)s2)CCC1=O [Compound 234, N-(5-(2,4-difluorobenzyl)thiazol-2-yl)-1-methyl-6-oxo-1,4,5,6-tetrahydropyridazine-3-carboxamide]
IC50 (human SCD5): 1440 nM
IC50 (human SCD1): 6300 nM

CN1N=C(C(=O)Nc2ncc(Cc3cc(F)ccc3F)s2)CCC1=O [Compound 235, N-(5-(2,5-difluorobenzyl)thiazol-2-yl)-1-methyl-6-oxo-1,4,5,6-tetrahydropyridazine-3-carboxamide]
IC50 (human SCD5): 1770 nM
IC50 (human SCD1): 1880 nM

Cn1nc(C(=O)Nc2ncc(Cc3cccc(Cl)c3)s2)ccc1=O [Compound 236, N-(5-(3-chlorobenzyl)thiazol-2-yl)-1-methyl-6-oxo-1,6-dihydropyridazine-3-carboxamide]
IC50 (human SCD5): 10 nM
IC50 (human SCD1): 10 nM

CN1N=C(C(=O)Nc2ncc(N(C)c3cccc(F)c3)s2)CCC1=O [Compound 237, N-(5-((3-fluorophenyl)(methyl)amino)thiazol-2-yl)-1-methyl-6-oxo-1,4,5,6-tetrahydropyridazine-3-carboxamide]
IC50 (human SCD5): 3200 nM
IC50 (human SCD1): 7210 nM

O=C(Nc1ccc(Cc2cccc(F)c2)nn1)c1ccc2nccn2n1 [Compound 238]
IC50 (human SCD5): 3960 nM
IC50 (human SCD1): 4060 nM

Cc1cc(C(=O)Nc2ccc(Cc3cccc(F)c3)cn2)nc(C)n1 [Compound 239]
IC50 (human SCD5): 10 nM
IC50 (human SCD1): 250 nM

Cn1ccc(C(=O)Nc2ccc(Cc3cccc(F)c3)cn2)cc1=O [Compound 240]
IC50 (human SCD5): 310 nM
IC50 (human SCD1): 4390 nM

Cc1ccc(C(=O)Nc2ccc(Cc3ccc(F)c(F)c3)cn2)nn1 [Compound 241]
IC50 (human SCD5): 70 nM
IC50 (human SCD1): 2030 nM

Cc1nccc(C(=O)Nc2ccc(Cc3cc(F)cc(F)c3)cn2)n1 [Compound 242]
IC50 (human SCD5): 10 nM
IC50 (human SCD1): 50 nM

Cc1ccc(C(=O)Nc2ccc(Cc3cccc(Cl)c3)cn2)nn1 [Compound 243]
IC50 (human SCD5): 10 nM
IC50 (human SCD1): 60 nM

Cc1nccc(C(=O)Nc2ccc(Cc3ccc(F)c(Cl)c3)cn2)n1 [Compound 244]
IC50 (human SCD5): 10 nM
IC50 (human SCD1): 10 nM

CN1N=C(C(=O)Nc2ncc(Cc3cccc(F)c3)nn2)CCC1=O [Compound 245]
IC50 (human SCD5): > 45000 nM
IC50 (human SCD1): > 45000 nM

CN1N=C(C(=O)Nc2ccc(CCc3cccc(Cl)c3)nn2)CCC1=O [Compound 246]
IC50 (human SCD5): 1590 nM
IC50 (human SCD1): 6450 nM

CN1N=C(C(=O)Nc2ccc(Cc3ccc(Cl)s3)nn2)CCC1=O [Compound 247]
IC50 (human SCD5): 2020 nM
IC50 (human SCD1): > 45000 nM

Cn1cc(C(=O)Nc2ccc(Cc3ccc(F)cc3)cn2)ccc1=O [Compound 248]
IC50 (human SCD5): 10 nM
IC50 (human SCD1): 200 nM

O=C(Nc1ccc(Cc2cccc(Cl)c2)cn1)N1CCn2nccc2C1 [Compound 249]
IC50 (human SCD5): 6750 nM
IC50 (human SCD1): > 45000 nM

O=C(Nc1ccc(Cc2cccc(Cl)c2)cn1)N1CC2(COC2)C1 [Compound 250]
IC50 (human SCD5): 9750 nM
IC50 (human SCD1): > 45000 nM

Cc1cc(C(=O)Nc2ccc(Cc3cccc(F)c3)cn2)nn(C)c1=O [Compound 251]
IC50 (human SCD5): 150 nM
IC50 (human SCD1): > 45000 nM

Cc1cnc(C(=O)Nc2ccc(Cc3cccc(F)c3)cn2)cn1 [Compound 252]
IC50 (human SCD5): 130 nM
IC50 (human SCD1): 690 nM

Cn1nc(NC(=O)c2ccc(Cc3cccc(Cl)c3)nn2)ccc1=O [Compound 254]
IC50 (human SCD5): 3530 nM
IC50 (human SCD1): > 45000 nM

O=C(Nc1ccc(Cc2cccc(Cl)c2)cn1)c1ccc(=O)n(C2CC2)n1 [Compound 256]
IC50 (human SCD5): 40 nM
IC50 (human SCD1): 750 nM
